Structures are written as SMILES. In brackets after ≈: the same amount, converted by molar mass.

For the first assay, the system named is Mannheimia haemolytica MH 6374 (ATCC 33396, reference strain). The assay is described as follows: MIC, broth-microdilution (CLSI VET01-A4), strain MH 6374. The assay is classed as cell-based. The following applies: Mannheimia haemolytica strain MH 6374, broth-microdilution; unit assumed. In short, it runs like this: (§1)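 MIC recorded as the lowest drug level giving no growth visible to the naked eye, from two-fold serial dilutions. Interpretation followed VET01-S3.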
`CSC(C)(C)[C@H](NC(=O)c1ccc(C#Cc2ccc(CNCc3ncccn3)nc2)cc1)C(=O)NO` [Compound 346] had an MIC MH 6374 of 6.3 µg/mL (≈ 12.5 µM).
Same read-out and setting: the value for `CSC(C)(C)[C@H](NC(=O)c1ccc(C#Cc2ccc(CN3CCCC3)cc2)cc1)C(=O)NO` [Compound 242] was 6.3 µg/mL (≈ 13.5 µM); that for `Cc1cnc(CNCc2ccc(C#Cc3ccc(C(=O)N[C@H](C(=O)NO)C(C)(C)O)cc3)s2)o1` [Compound 299] was 0.4 µg/mL (≈ 0.829 µM).
In turn, `CSC(C)(C)[C@H](NC(=O)c1ccc(C#Cc2ccc(CNCc3ccccc3)nc2)cc1)C(=O)NO` [Compound 339] came in with an MIC MH 6374 of 1.6 µg/mL (≈ 3.18 µM).

The test system of the next assay is Pasteurella multocida PM 6267 (P 2225 (L386), reference strain, mouse infection strain). The assay is described as follows: MIC, broth-microdilution (CLSI VET01-A4), strain PM 6267. Format: cell-based. The note with it: Pasteurella multocida strain PM 6267, broth-microdilution; unit assumed. The gist of the method: as §1
On to `CSC(C)(C)[C@H](NC(=O)c1ccc(C#Cc2ccc(CNCc3ncccn3)nc2)cc1)C(=O)NO` [Compound 346], for which the MIC PM 6267 turned out to be 6.3 µg/mL (≈ 12.5 µM).
Turning to `CSC(C)(C)[C@H](NC(=O)c1ccc(C#Cc2ccc(CN3CCCC3)cc2)cc1)C(=O)NO` [Compound 242], the MIC PM 6267 was determined as 0.4 µg/mL (≈ 0.859 µM).
Molecule `Cc1cnc(CNCc2ccc(C#Cc3ccc(C(=O)N[C@H](C(=O)NO)C(C)(C)O)cc3)s2)o1` [Compound 299] displayed an MIC PM 6267 of 0.4 µg/mL (≈ 0.829 µM).
`CSC(C)(C)[C@H](NC(=O)c1ccc(C#Cc2ccc(CNCc3ccccc3)nc2)cc1)C(=O)NO` [Compound 339] returned an MIC PM 6267 of 0.8 µg/mL (≈ 1.59 µM).

Another assay has as its system Pasteurella multocida PM 10775 (080130003051, BRD field isolate). The assay is described as follows: MIC, broth-microdilution (CLSI VET01-A4), strain PM 10775. The assay is classed as cell-based. The note with it: Pasteurella multocida strain PM 10775, broth-microdilution; unit assumed. In short, it runs like this:
as §1
The molecule `CSC(C)(C)[C@H](NC(=O)c1ccc(C#Cc2ccc(CNCc3ncccn3)nc2)cc1)C(=O)NO` [Compound 346] registered an MIC PM 10775 of 0.4 µg/mL (≈ 0.793 µM).
Consider `CSC(C)(C)[C@H](NC(=O)c1ccc(C#Cc2ccc(CN3CCCC3)cc2)cc1)C(=O)NO` [Compound 242], for which the MIC PM 10775 was determined as 0.2 µg/mL (≈ 0.43 µM).
Regarding `Cc1cnc(CNCc2ccc(C#Cc3ccc(C(=O)N[C@H](C(=O)NO)C(C)(C)O)cc3)s2)o1` [Compound 299], the MIC PM 10775 was at most 0.1 µg/mL.
`CSC(C)(C)[C@H](NC(=O)c1ccc(C#Cc2ccc(CNCc3ccccc3)nc2)cc1)C(=O)NO` [Compound 339] registered an MIC PM 10775 of at most 0.1 µg/mL.

The next assay has as its system Pasteurella multocida PM 6391 (ATCC 43137, reference strain). The assay is described as follows: MIC, broth-microdilution (CLSI VET01-A4), strain PM 6391. Format: cell-based. The following applies: Pasteurella multocida strain PM 6391, broth-microdilution; unit assumed. The gist of the method: as §1
For the molecule `CSC(C)(C)[C@H](NC(=O)c1ccc(C#Cc2ccc(CNCc3ncccn3)nc2)cc1)C(=O)NO` [Compound 346], the MIC PM 6391 is 3.1 µg/mL (≈ 6.14 µM).
`CSC(C)(C)[C@H](NC(=O)c1ccc(C#Cc2ccc(CN3CCCC3)cc2)cc1)C(=O)NO` [Compound 242] registered an MIC PM 6391 of 1.6 µg/mL (≈ 3.44 µM).
For `Cc1cnc(CNCc2ccc(C#Cc3ccc(C(=O)N[C@H](C(=O)NO)C(C)(C)O)cc3)s2)o1` [Compound 299], the MIC PM 6391 is at most 0.1 µg/mL.
In the case of `CSC(C)(C)[C@H](NC(=O)c1ccc(C#Cc2ccc(CNCc3ccccc3)nc2)cc1)C(=O)NO` [Compound 339], the MIC PM 6391 was 0.8 µg/mL (≈ 1.59 µM).

In the next assay the test system is Mannheimia haemolytica MH 13065 (XB0446-6003.9, BRD field isolate). The assay is described as follows: MIC, broth-microdilution (CLSI VET01-A4), strain MH 13065. The assay is classed as cell-based. The note with it: Mannheimia haemolytica strain MH 13065, broth-microdilution; unit assumed. In short, it runs like this: as §1
As to `CSC(C)(C)[C@H](NC(=O)c1ccc(C#Cc2ccc(CNCc3ncccn3)nc2)cc1)C(=O)NO` [Compound 346], the MIC MH 13065 was 6.3 µg/mL (≈ 12.5 µM).
Consider `CSC(C)(C)[C@H](NC(=O)c1ccc(C#Cc2ccc(CN3CCCC3)cc2)cc1)C(=O)NO` [Compound 242], for which the MIC MH 13065 turned out to be 3.1 µg/mL (≈ 6.66 µM).
On to `Cc1cnc(CNCc2ccc(C#Cc3ccc(C(=O)N[C@H](C(=O)NO)C(C)(C)O)cc3)s2)o1` [Compound 299], for which the MIC MH 13065 was determined as 0.4 µg/mL (≈ 0.829 µM).
Consider `CSC(C)(C)[C@H](NC(=O)c1ccc(C#Cc2ccc(CNCc3ccccc3)nc2)cc1)C(=O)NO` [Compound 339], for which the MIC MH 13065 amounted to 0.8 µg/mL (≈ 1.59 µM).

The subject of the next assay is Pasteurella multocida PM 12080 (IV102277-0093, BRD field isolate). The assay is described as follows: MIC, broth-microdilution (CLSI VET01-A4), strain PM 12080. The following applies: Pasteurella multocida strain PM 12080, broth-microdilution; unit assumed. The assay is classed as cell-based. The gist of the method: as §1
The molecule `CSC(C)(C)[C@H](NC(=O)c1ccc(C#Cc2ccc(CNCc3ncccn3)nc2)cc1)C(=O)NO` [Compound 346] returned an MIC PM 12080 of 1.6 µg/mL (≈ 3.17 µM).
Take `CSC(C)(C)[C@H](NC(=O)c1ccc(C#Cc2ccc(CN3CCCC3)cc2)cc1)C(=O)NO` [Compound 242]: the MIC PM 12080 was found to be 0.8 µg/mL (≈ 1.72 µM).
As to `Cc1cnc(CNCc2ccc(C#Cc3ccc(C(=O)N[C@H](C(=O)NO)C(C)(C)O)cc3)s2)o1` [Compound 299], the MIC PM 12080 came out at 0.4 µg/mL (≈ 0.829 µM).
The same measure, in the same setting: the figure for `CSC(C)(C)[C@H](NC(=O)c1ccc(C#Cc2ccc(CNCc3ccccc3)nc2)cc1)C(=O)NO` [Compound 339] is 0.2 µg/mL (≈ 0.398 µM).

In the next assay the test system is Mannheimia haemolytica MH 6357 (M7/2, reference strain, cattle infection strain). The assay is described as follows: MIC, broth-microdilution (CLSI VET01-A4), strain MH 6357. The assay is classed as cell-based. The following applies: Mannheimia haemolytica strain MH 6357, broth-microdilution; unit assumed. In short, it runs like this: as §1
Take `CSC(C)(C)[C@H](NC(=O)c1ccc(C#Cc2ccc(CNCc3ncccn3)nc2)cc1)C(=O)NO` [Compound 346]: the MIC MH 6357 amounted to 6.3 µg/mL (≈ 12.5 µM).
`CSC(C)(C)[C@H](NC(=O)c1ccc(C#Cc2ccc(CN3CCCC3)cc2)cc1)C(=O)NO` [Compound 242] had an MIC MH 6357 of 6.3 µg/mL (≈ 13.5 µM).
`Cc1cnc(CNCc2ccc(C#Cc3ccc(C(=O)N[C@H](C(=O)NO)C(C)(C)O)cc3)s2)o1` [Compound 299] showed an MIC MH 6357 of 0.2 µg/mL (≈ 0.414 µM).
The molecule `CSC(C)(C)[C@H](NC(=O)c1ccc(C#Cc2ccc(CNCc3ccccc3)nc2)cc1)C(=O)NO` [Compound 339] returned an MIC MH 6357 of 0.8 µg/mL (≈ 1.59 µM).

The test system of a further assay is Mannheimia haemolytica MH 13093 (XB0472-6014.1, BRD field isolate). The assay is described as follows: MIC, broth-microdilution (CLSI VET01-A4), strain MH 13093. The assay is classed as cell-based. The following applies: Mannheimia haemolytica strain MH 13093, broth-microdilution; unit assumed. In short, it runs like this:
as §1
On to `CSC(C)(C)[C@H](NC(=O)c1ccc(C#Cc2ccc(CNCc3ncccn3)nc2)cc1)C(=O)NO` [Compound 346], for which the MIC MH 13093 turned out to be 12.5 µg/mL (≈ 24.8 µM).
The molecule `CSC(C)(C)[C@H](NC(=O)c1ccc(C#Cc2ccc(CN3CCCC3)cc2)cc1)C(=O)NO` [Compound 242] returned an MIC MH 13093 of 3.1 µg/mL (≈ 6.66 µM).
The molecule `Cc1cnc(CNCc2ccc(C#Cc3ccc(C(=O)N[C@H](C(=O)NO)C(C)(C)O)cc3)s2)o1` [Compound 299] displayed an MIC MH 13093 of 0.4 µg/mL (≈ 0.829 µM).
On to `CSC(C)(C)[C@H](NC(=O)c1ccc(C#Cc2ccc(CNCc3ccccc3)nc2)cc1)C(=O)NO` [Compound 339], for which the MIC MH 13093 came out at 1.6 µg/mL (≈ 3.18 µM).

The subject of another assay is Mannheimia haemolytica MH 10720 (154, BRD field isolate). The assay is described as follows: MIC, broth-microdilution (CLSI VET01-A4), strain MH 10720. Format: cell-based. The note with it: Mannheimia haemolytica strain MH 10720, broth-microdilution; unit assumed. The gist of the method: as §1
Take `CSC(C)(C)[C@H](NC(=O)c1ccc(C#Cc2ccc(CNCc3ncccn3)nc2)cc1)C(=O)NO` [Compound 346]: the MIC MH 10720 was determined as 0.8 µg/mL (≈ 1.59 µM).
With `CSC(C)(C)[C@H](NC(=O)c1ccc(C#Cc2ccc(CN3CCCC3)cc2)cc1)C(=O)NO` [Compound 242], the MIC MH 10720 is 0.8 µg/mL (≈ 1.72 µM).
Same read-out and setting: the figure for `Cc1cnc(CNCc2ccc(C#Cc3ccc(C(=O)N[C@H](C(=O)NO)C(C)(C)O)cc3)s2)o1` [Compound 299] is at most 0.1 µg/mL; for `CSC(C)(C)[C@H](NC(=O)c1ccc(C#Cc2ccc(CNCc3ccccc3)nc2)cc1)C(=O)NO` [Compound 339] it is at most 0.1 µg/mL.

In the next assay the test system is Mannheimia haemolytica MH 12587 (1071, BRD field isolate, macrolide-resistance: erm+, E+). The assay is described as follows: MIC, broth-microdilution (CLSI VET01-A4), strain MH 12587. Format: cell-based. The following applies: Mannheimia haemolytica strain MH 12587, broth-microdilution; unit assumed. The gist of the method:
as §1
`CSC(C)(C)[C@H](NC(=O)c1ccc(C#Cc2ccc(CNCc3ncccn3)nc2)cc1)C(=O)NO` [Compound 346] yielded an MIC MH 12587 of 12.5 µg/mL (≈ 24.8 µM).
Consider `CSC(C)(C)[C@H](NC(=O)c1ccc(C#Cc2ccc(CN3CCCC3)cc2)cc1)C(=O)NO` [Compound 242], for which the MIC MH 12587 was 6.3 µg/mL (≈ 13.5 µM).
As to `Cc1cnc(CNCc2ccc(C#Cc3ccc(C(=O)N[C@H](C(=O)NO)C(C)(C)O)cc3)s2)o1` [Compound 299], the MIC MH 12587 is 0.8 µg/mL (≈ 1.66 µM).
`CSC(C)(C)[C@H](NC(=O)c1ccc(C#Cc2ccc(CNCc3ccccc3)nc2)cc1)C(=O)NO` [Compound 339] registered an MIC MH 12587 of 1.6 µg/mL (≈ 3.18 µM).

These data come from patent US11034650B2, “Compounds useful for treating a Mannheimia haemolytica or Histophilus somni infection” (Intervet Inc., priority 2016, dated 2021).
